Experiment [1] has as its system Sweetpotato Whitefly-Crawler (WF) (Bemisia tabaci) (BEMITA). The experiment can be described thus: Insecticidal test for Sweetpotato Whitefly-Crawler (WF) in foliar spray assay on cotton plants. Format: in vivo. The settings on record: 216 h, read-out: WF 200 ppm, % Control (or Mortality) rating. Put shortly: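 Cotton plants carrying 200–400 whitefly eggs sprayed to run-off on both leaf surfaces at 200 ppm (acetone/0.025% Tween 20), four plants per treatment. After 9 days at about 25 °C, live 3rd–4th instar nymphs counted; Abbott-corrected percent control versus solvent check.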

Experiment [2] concerns Green Peach Aphid (GPA) (Myzus persicae) (MYZUPE). The experiment can be described thus: Bioassay for Green Peach Aphid (GPA), foliar spray on cabbage seedlings. Format: in vivo. The note with it: 72 h, read-out: GPA 200 ppm, % Control (or Mortality) rating. Put shortly: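 Cabbage seedlings infested with 20-50 GPA (wingless adults and nymphs) one day before spraying to runoff with 200 ppm compound; four pots per treatment. Live aphids counted after three days at ~25° C; percent control by Abbott's correction against solvent-sprayed plants.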

Setting [3] is: 200 ppm foliar spray on cotton plants, graded after 9 days, Abbott corrected % control.
Setting [4] is: 200 ppm foliar spray on cabbage seedlings, graded after three days, Abbott corrected % control.

Read-outs that look alike come from different tables or passages of the source. A value given as a limit tells only on which side of the number the result lay.

In general, mortality refers to the share of the test organisms that died. For the compound `CN(C(=O)[C@H]1C=C[C@@H](NC(=O)OC(C)(C)C)C1)c1cn(-c2cccnc2)nc1Cl` [Compound F116, tert-Butyl ((1S,4R)-4-((3-chloro-1-(pyridin-3-yl)-1H-pyrazol-4-yl)(methyl)carbamoyl)cyclopent-2-en-1-yl)carbamate], the mortality at 200 ppm in experiment [1] (setting [3]) was 80 to 100%; in experiment [2] (setting [4]), 0 to 80%.

On to `CCN(C(=O)CCC(=O)NCC1CCCCC1)c1cn(-c2cccnc2)nc1Cl` [Compound F15, N1-(3-Chloro-1-(pyridin-3-yl)-1H-pyrazol-4-yl)-N4-(cyclohexylmethyl)-N1-ethylsuccinamide], for which the mortality at 200 ppm lay in the range of 80 to 100% in experiment [1] (setting [3]) and 0 to 80% in experiment [2] (setting [4]).

Turning to `CCN(C(=O)CCN(C)C(C)=O)c1cn(-c2cccnc2)nc1Cl` [Compound F64, N-(3-chloro-1-(pyridin-3-yl)-1H-pyrazol-4-yl)-N-ethyl-3-(N-methylacetamido) propanamide], the mortality at 200 ppm in experiment [1] (setting [3]) and in experiment [2] (setting [4]) was 80 to 100% throughout.

With `CCN(C(=O)C1CCN(C(=O)CCC(F)(F)F)C1)c1cn(-c2cccnc2)nc1Cl` (stereo not shown) [FA10, N-(3-Chloro-1-(pyridin-3-yl)-1H-pyrazol-4-yl)-N-ethyl-1-(4,4,4-trifluorobutanoyl)pyrrolidine-3-carboxamide], the mortality at 200 ppm in experiment [1] (setting [3]) and in experiment [2] (setting [4]) was 80 to 100% each time.

For `CN(C(=O)CN1CCOC1=O)c1cn(-c2cccnc2)nc1Cl` [Compound F111, N-(3-Chloro-1-(pyridin-3-yl)-1H-pyrazol-4-yl)-N-methyl-2-(2-oxooxazolidin-3-yl)acetamide], the mortality at 200 ppm in experiment [1] (setting [3]) and in experiment [2] (setting [4]) was 80 to 100% in each case.

With `CCN(C(=O)CC/C(=N\OCc1ccc(C(F)(F)F)nc1)c1cccs1)c1cn(-c2cccnc2)nc1Cl` [FA36, (E)-N-(3-Chloro-1-(pyridin-3-yl)-1H-pyrazol-4-yl)-N-ethyl-4-(thiophen-2-yl)-4-(((6-(trifluoromethyl)pyridin-3-yl)methoxy)imino)butanamide], the mortality at 200 ppm in experiment [1] (setting [3]) and in experiment [2] (setting [4]) was 0 to 80% in each case.

For the compound `CCN(C(=O)CCN(CC(F)F)C(=O)C1CC1(F)F)c1cn(-c2cccnc2)nc1Cl` (stereo not shown) [Compound F34, N-(3-((3-chloro-1-(pyridin-3-yl)-1H-pyrazol-4-yl)(ethyl)amino)-3-oxopropyl)-N-(2,2-difluoroethyl)-2,2-difluorocyclopropanecarboxamide], the mortality at 200 ppm in experiment [1] (setting [3]) lay in the range of 80 to 100%; in experiment [2] (setting [4]), 0 to 80%.

In the case of `CCN(C(=O)CC/C(=N/OCC(F)(F)F)c1cccs1)c1cn(-c2cccnc2)nc1Cl` [FA35, (E/Z)-N-(3-Chloro-1-(pyridin-3-yl)-1H-pyrazol-4-yl)-N-ethyl-4-(thiophen-2-yl)-4-((2,2,2-trifluoroethoxy)imino)butanamide], the mortality at 200 ppm in experiment [1] (setting [3]) was 80 to 100%; in experiment [2] (setting [4]) it was 0 to 80%.

Turning to `CCN(C(=O)CCN(C(C)=O)C1CC1)c1cn(-c2cccnc2)nc1Cl` [Compound F9, N-(3-Chloro-1-(pyridin-3-yl)-1H-pyrazol-4-yl)-3-(N-cyclopropylacetamido)-N-ethylpropanamide], the values for the mortality at 200 ppm in experiment [1] (setting [3]) and in experiment [2] (setting [4]) were 0 to 80% and 80 to 100%, respectively.

In the case of `CCN(C(=O)C1CN(C(=O)CCC#N)C1)c1cn(-c2cccnc2)nc1Cl` [FA16, N-(3-Chloro-1-(pyridin-3-yl)-1H-pyrazol-4-yl)-1-(3-cyanopropanoyl)-N-ethylazetidine-3-carboxamide], the mortality at 200 ppm in experiment [1] (setting [3]) and in experiment [2] (setting [4]) was 0 to 80% in each case.

Regarding `CCN(C(=O)CCNC(=O)C(C)CC(F)(F)F)c1cn(-c2cccnc2)nc1Cl` (stereo not shown) [Compound F44, N-(3-((3-Chloro-1-(pyridin-3-yl)-1H-pyrazol-4-yl)(ethyl)amino)-3-oxopropyl)-4,4,4-trifluoro-2-methylbutanamide], the mortality at 200 ppm in experiment [1] (setting [3]) and in experiment [2] (setting [4]) was 80 to 100% in each case.

`CCN(C(=O)CC1CN(Cc2ccc(C(F)(F)F)cc2)C1=O)c1cn(-c2cccnc2)nc1Cl` (stereo not shown) [Compound F14]: the mortality at 200 ppm in experiment [1] (setting [3]) lay within 80 to 100%; in experiment [2] (setting [4]), 0 to 80%.

`CN(CC(=O)N(C)c1cn(-c2cccnc2)nc1Cl)C(=O)OC(C)(C)C` [Compound F90, tert-Butyl (2-((3-chloro-1-(pyridin-3-yl)-1H-pyrazol-4-yl)(methyl)amino)-2-oxoethyl)(methyl) carbamate]: the mortality at 200 ppm in experiment [1] (foliar) lay within 80 to 100%; in experiment [2] (foliar), 0 to 80%.

In the case of `CC(CCC(=O)N(C)c1cn(-c2cccnc2)nc1Cl)=NOC(C)C` (mixture of isomers) [Compound F130, (E/Z)-N-(3-Chloro-1-(pyridin-3-yl)-1H-pyrazol-4-yl)-4-(isopropoxyimino)-N-methylpentanamide], the mortality at 200 ppm in experiment [1] (setting [3]) and in experiment [2] (setting [4]) was 80 to 100% throughout.

`CN(C(=O)CCC(=O)N1CCCCCC1)c1cn(-c2cccnc2)nc1Cl` [Compound F27, 4-(Azepan-1-yl)-N-(3-chloro-1-(pyridin-3-yl)-1H-pyrazol-4-yl)-N-methyl-4-oxobutanamide]: the values for the mortality at 200 ppm in experiment [1] (setting [3]) and in experiment [2] (setting [4]) were 80 to 100% and 0 to 80%, respectively.

In the case of `CCN(C(=O)CCC(=O)NCc1ccc(F)cc1)c1cn(-c2cccnc2)nc1Cl` [Compound F80, N1-(3-Chloro-1-(pyridin-3-yl)-1H-pyrazol-4-yl)-N1-ethyl-N4-(4-fluorobenzyl)succinamide], the mortality at 200 ppm in experiment [1] (setting [3]) fell in the range of 80 to 100%; in experiment [2] (setting [4]), 0 to 80%.

For `CCN(C(=O)CNC(=O)/C=C/C(F)(F)F)c1cn(-c2cccnc2)nc1Cl` [Compound F99, (E)-N-(2-((3-Chloro-1-(pyridin-3-yl)-1H-pyrazol-4-yl)(ethyl)amino)-2-oxoethyl)-4,4,4-trifluorobut-2-enamide], the mortality at 200 ppm was in the range of 80 to 100% in experiment [1] (setting [3]) and 0 to 80% in experiment [2] (setting [4]).

Consider `CCN(C(=O)C1CCN(C(=O)CCC(F)(F)F)CC1)c1cn(-c2cccnc2)nc1Cl` [FA6, N-(3-Chloro-1-(pyridin-3-yl)-1H-pyrazol-4-yl)-N-ethyl-1-(4,4,4-trifluorobutanoyl)piperidine-4-carboxamide], for which the figures for the mortality at 200 ppm in experiment [1] (setting [3]) and in experiment [2] (setting [4]) were 0 to 80% and 80 to 100%, respectively.

Regarding `CCN(C(=O)CC(C)=O)c1cn(-c2cccnc2)nc1Cl` [FA66, N-(3-chloro-1-(pyridin-3-yl)-1H-pyrazol-4-yl)-N-ethyl-3-oxobutanamide], the mortality at 200 ppm in experiment [1] (setting [3]) and in experiment [2] (setting [4]) was 80 to 100% each time.

Consider `CCN(C(=O)CCN)c1cn(-c2cccnc2)nc1Cl` [Compound C2, 3-amino-N-(3-chloro-1-(pyridin-3-yl)-1H-pyrazol-4-yl)-N-ethylpropanamide], for which the figures for the mortality at 200 ppm in experiment [1] (setting [3]) and in experiment [2] (setting [4]) were 80 to 100% and 0 to 80%, respectively.

Take `CCN(C(=O)C1CCCN(C(=O)CC(F)(F)F)C1)c1cn(-c2cccnc2)nc1Cl` (stereo not shown) [FA42, N-(3-Chloro-1-(pyridin-3-yl)-1H-pyrazol-4-yl)-N-ethyl-1-(3,3,3-trifluoropropanoyl)piperidine-3-carboxamide]: the figures for the mortality at 200 ppm in experiment [1] (setting [3]) and in experiment [2] (setting [4]) were 0 to 80% and 80 to 100%, respectively.

For the compound `CCN(C(=O)C1CCN(C(=O)c2cccnc2)CC1)c1cn(-c2cccnc2)nc1Cl` [FA8, N-(3-Chloro-1-(pyridin-3-yl)-1H-pyrazol-4-yl)-N-ethyl-1-nicotinoylpiperidine-4-carboxamide], the mortality at 200 ppm fell in the range of 0 to 80% in experiment [1] (setting [3]) and 80 to 100% in experiment [2] (setting [4]).

`CCN(C(=O)CCC1CN(C)C1=O)c1cn(-c2cccnc2)nc1Cl` (stereo not shown) [Compound F119, N-(3-Chloro-1-(pyridin-3-yl)-1H-pyrazol-4-yl)-N-ethyl-3-(1-methyl-2-oxoazetidin-3-yl)propanamide]: the mortality at 200 ppm in experiment [1] (setting [3]) and in experiment [2] (setting [4]) was 80 to 100% in each case.

In the case of `CC(C)(C)[Si](C)(C)N1CC(CCCC(=O)O)C1=O` (stereo not shown) [Compound C5, 4-(1-(tert-Butyldimethylsilyl)-2-oxoazetidin-3-yl)butanoic acid], the mortality at 200 ppm in experiment [1] (foliar) is less than 0%; in experiment [2] (foliar), 0 to 80%.

In the case of `CCN(C(=O)CCN(CC(F)F)C(=O)CCC(F)(F)F)c1cn(-c2cccnc2)nc1Cl` [Compound F89, N-(3-((3-Chloro-1-(pyridin-3-yl)-1H-pyrazol-4-yl)(ethyl)amino)-3-oxopropyl)-N-(2,2-difluoroethyl)-4,4,4-trifluorobutanamide], the mortality at 200 ppm in experiment [1] (setting [3]) and in experiment [2] (setting [4]) was 80 to 100% each time.

Consider `CCN(C(=O)CCN1CCOC1=O)c1cn(-c2cccnc2)nc1Cl` [Compound F69, N-(3-Chloro-1-(pyridin-3-yl)-1H-pyrazol-4-yl)-N-ethyl-3-(2-oxooxazolidin-3-yl)propanamide], for which the mortality at 200 ppm in experiment [1] (setting [3]) and in experiment [2] (setting [4]) was 80 to 100% each time.

`CCN(C(=O)C1CCN(C(=O)C(F)(F)F)CC1)c1cn(-c2cccnc2)nc1Cl` [FA5, N-(3-Chloro-1-(pyridin-3-yl)-1H-pyrazol-4-yl)-N-ethyl-1-(2,2,2-trifluoroacetyl)piperidine-4-carboxamide]: the mortality at 200 ppm lay within 0 to 80% in experiment [1] (setting [3]) and 80 to 100% in experiment [2] (setting [4]).

`CCN(C(=O)CCC(=O)NCCF)c1cn(-c2cccnc2)nc1Cl` [Compound F43, N1-(3-Chloro-1-(pyridin-3-yl)-1H-pyrazol-4-yl)-N1-ethyl-N4-(2-fluoroethyl)succinamide]: the mortality at 200 ppm in experiment [1] (setting [3]) was in the range of 80 to 100%; in experiment [2] (setting [4]), 0 to 80%.

As to `CCN(C(=O)C(C)OC(=O)N(C)OC)c1cn(-c2cccnc2)nc1Cl` (stereo not shown) [Compound F16, 1-((3-Chloro-1-(pyridin-3-yl)-1H-pyrazol-4-yl)(ethyl)amino)-1-oxopropan-2-yl methoxy(methyl) carbamate], the mortality at 200 ppm in experiment [1] (setting [3]) and in experiment [2] (setting [4]) was 80 to 100% in each case.

For the origin of these results see patent US9523100B2, “Pesticidal compositions and related methods” (DOW AGROSCIENCES LLC, priority 2013, dated 2016).
